This note sets out measurements from patent US20230203098A1, “HUMAN TRANSFERRIN RECEPTOR BINDING PEPTIDE” (priority 2020, published 2023).

This assay concerns the target transferrin receptor (hTfR) (Homo sapiens, UniProt P02786). Kind of assay: Intermolecular interaction evaluation test between transferrin receptor (hTfR) and peptide by surface plasmon resonance (SPR). The class given is binding. Summed up:
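hTfR captured on Ni-NTA chip then amine-coupled; peptides run single-cycle kinetics at 5–100 nM in 10 mM HEPES pH 8.0, 150 mM NaCl, 0.05% Tween 20, 0.1% BSA, 1.0% DMSO. KD from least-squares curve fitting of sensorgrams.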

Setting [1] is: binding to hTfR by SPR, Table 2 peptides, read-out: KD value (SPR) class.
Where [2] appears, read: surface plasmon resonance, hTfR, read-out: KD value for hTfR by SPR (class symbol).

Where two headings read alike, the source gives them in different places. Where a SMILES comes first, the peptide text is derived from it. Bridges are numbered along the chain shown (N, C = ends). [ ]: non-standard residue; d: D form. The star is where a group is joined. X2 = O=C(O)c1cc(C(=O)*)ccc1-c1c2ccc(=O)cc-2oc2cc(O)ccc12; PEG12 = NCCOCCOCCOCCOCCOCCOCCOCCOCCOCCOCCOCCOCCC(=O)O; Phe(3-COOH) = N[C@@H](Cc1cccc(C(=O)O)c1)C(=O)O; NMePhe(3-Cl) = CN[C@@H](Cc1cccc(Cl)c1)C(=O)O; NMeW = CN[C@@H](Cc1c[nH]c2ccccc12)C(=O)O; NMeY = CN[C@@H](Cc1ccc(O)cc1)C(=O)O; PEG4 = NCCOCCOCCOCCOCCC(=O)O; hLys = NCCCCC[C@H](N)C(=O)O; Dab = NCC[C@H](N)C(=O)O; Sar = CNCC(=O)O Some results are limits rather than exact numbers.

Sequence of transferrin receptor (hTfR) (P02786 whole entry): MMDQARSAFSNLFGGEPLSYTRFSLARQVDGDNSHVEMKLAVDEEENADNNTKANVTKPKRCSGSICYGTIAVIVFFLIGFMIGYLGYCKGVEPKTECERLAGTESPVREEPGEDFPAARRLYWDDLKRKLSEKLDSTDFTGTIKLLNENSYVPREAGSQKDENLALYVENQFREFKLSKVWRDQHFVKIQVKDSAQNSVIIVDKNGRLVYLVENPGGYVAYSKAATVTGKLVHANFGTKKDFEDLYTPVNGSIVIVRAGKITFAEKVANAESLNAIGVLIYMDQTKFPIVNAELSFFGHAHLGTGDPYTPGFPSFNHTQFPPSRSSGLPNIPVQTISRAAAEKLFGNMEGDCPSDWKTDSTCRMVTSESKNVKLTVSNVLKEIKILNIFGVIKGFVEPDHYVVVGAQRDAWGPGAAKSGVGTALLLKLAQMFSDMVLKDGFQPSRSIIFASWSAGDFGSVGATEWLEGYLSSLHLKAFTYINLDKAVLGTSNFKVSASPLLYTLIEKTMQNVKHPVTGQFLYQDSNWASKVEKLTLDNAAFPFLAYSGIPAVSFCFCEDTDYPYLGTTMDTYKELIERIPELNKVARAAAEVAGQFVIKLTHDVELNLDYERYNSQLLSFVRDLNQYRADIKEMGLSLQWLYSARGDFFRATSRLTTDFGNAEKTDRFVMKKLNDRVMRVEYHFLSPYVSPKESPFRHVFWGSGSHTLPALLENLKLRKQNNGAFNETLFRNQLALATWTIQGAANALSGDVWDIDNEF

Take `CC[C@H](C)[C@@H]1NC(=O)[C@H](Cc2ccc(O)cc2)NC(=O)[C@H](Cc2ccc(O)cc2)NC(=O)[C@H](CC(N)=O)NC(=O)[C@H](Cc2c[nH]c3ccccc23)NC(=O)[C@H](C(C)C)NC(=O)[C@H](Cc2ccccc2)N(C)C(=O)[C@H](C(C)C)NC(=O)[C@H](C)NC(=O)CSC[C@@H](C(=O)N[C@@H](CCCCNC(=O)C2CCC(CN3C(=O)C=CC3=O)CC2)C(N)=O)NC(=O)[C@H](Cc2ccc(O)cc2)N(C)C(=O)[C@H](Cc2ccc(O)cc2)NC(=O)[C@H](CCCNC(=N)N)NC(=O)[C@H](CCCNC(=N)N)NC(=O)[C@H]([C@@H](C)CC)NC1=O` (some centres unmarked) [compound 186]: the Kd (hTfR binding by SPR, hTfR No. 894 variant peptides, linker-added peptides and payload conjugates (Table 2), read-out: KD value obtained from the SPR measurement) was in the range of 1 to 100 nM.

On to `CC[C@H](C)[C@@H]1NC(=O)[C@H](Cc2ccc(O)cc2)NC(=O)[C@H](Cc2ccc(O)cc2)NC(=O)[C@H](CC(N)=O)NC(=O)[C@H](Cc2cccc(F)c2)NC(=O)[C@H](C(C)C)NC(=O)[C@H](Cc2ccccc2)N(C)C(=O)[C@H](C(C)C)NC(=O)[C@H](C)NC(=O)CSC[C@@H](C(=O)NCCOCCOCCOCCOCCOCCOCCOCCOCCOCCOCCOCCOCCC(N)=O)NC(=O)[C@H](Cc2ccc(O)cc2)N(C)C(=O)[C@H](Cc2ccc(O)cc2)NC(=O)[C@H](CCCNC(=N)N)NC(=O)[C@H](CCCNC(=N)N)NC(=O)[C@H]([C@@H](C)CC)NC1=O` [compound 122], for which the Kd (SPR, hTfR No. 894 variants with PEG12c linker (Table 2), read-out: KD) fell in the range of 1 to 100 nM.

`CC[C@H](C)[C@@H]1NC(=O)[C@H](Cc2ccc(O)cc2)NC(=O)[C@H](Cc2ccc(O)cc2)NC(=O)[C@H](CC(N)=O)NC(=O)[C@H](Cc2c[nH]c3ccccc23)NC(=O)[C@H](C(C)C)NC(=O)[C@H](Cc2ccccc2)NC(=O)[C@H](C(C)C)NC(=O)[C@H](C)NC(=O)CSC[C@@H](C(N)=O)NC(=O)[C@H](Cc2ccc(O)cc2)N(C)C(=O)[C@H](Cc2ccc(O)cc2)NC(=O)[C@H](CCCNC(=N)N)NC(=O)[C@H](CCCNC(=N)N)NC(=O)[C@H](CCCNC(=N)N)NC1=O` [compound 248]: the Kd under setting [1] is 1 to 100 nM.

For `CC[C@H](C)[C@@H]1NC(=O)[C@H](Cc2ccc(O)cc2)NC(=O)[C@H](Cc2ccc(O)cc2)NC(=O)[C@H](CC(N)=O)NC(=O)[C@H](Cc2c[nH]c3ccccc23)NC(=O)[C@H](C(C)C)NC(=O)[C@H](Cc2ccccc2)NC(=O)[C@H](C(C)C)NC(=O)[C@H](C)NC(=O)CSC[C@@H](C(N)=O)NC(=O)[C@H](Cc2ccc(O)cc2)N(C)C(=O)[C@H](Cc2ccc(O)cc2)NC(=O)[C@H](CCCCN)NC(=O)[C@H](CCCNC(=N)N)NC(=O)[C@H]([C@@H](C)CC)NC1=O` [compound 258], the Kd under setting [1] lay in the range of 1 to 100 nM.

For `CC[C@H](C)[C@@H]1NC(=O)[C@H](Cc2ccc(OC)cc2)NC(=O)[C@H](Cc2ccc(O)cc2)NC(=O)[C@H](CC(N)=O)NC(=O)[C@H](Cc2c[nH]c3ccccc23)N(C)C(=O)[C@H](C(C)C)NC(=O)[C@H](Cc2cccc(Cl)c2)N(C)C(=O)[C@H](C(C)C)NC(=O)[C@H](C)NC(=O)CSC[C@@H](C(N)=O)NC(=O)[C@H](Cc2ccc(O)cc2)N(C)C(=O)[C@H](Cc2ccccc2)NC(=O)[C@@H](CCCNC(=N)N)NC(=O)[C@H](CCCNC(=N)N)N(C)C(=O)[C@H]([C@@H](C)CC)NC1=O` [compound 382], under setting [2], the Kd was in the range of 1 to 100 nM.

`CC[C@H](C)[C@@H]1NC(=O)[C@H](Cc2ccc(OC)cc2)NC(=O)[C@H](Cc2ccc(O)cc2)NC(=O)[C@H](CC(N)=O)NC(=O)[C@H](Cc2c[nH]c3ccccc23)N(C)C(=O)[C@H](C(C)C)NC(=O)[C@H](Cc2cccc(Cl)c2)N(C)C(=O)[C@H](C(C)C)NC(=O)[C@H](C)NC(=O)CSC[C@@H](C(=O)NCC(=O)NCC(=O)NCC(=O)NCC(=O)N[C@@H](CO)C(=O)N[C@@H](CO)C(=O)N[C@@H](CS)C(N)=O)NC(=O)[C@H](Cc2ccc(O)cc2)N(C)C(=O)[C@H](Cc2ccccc2)NC(=O)[C@@H](CCCNC(=N)N)NC(=O)[C@H](CCCNC(=N)N)NC(=O)[C@H](CN)NC1=O` [compound 343] came in with a dissociation constant (Kd) of 1 to 100 nM.

In the case of `CC[C@H](C)[C@@H]1NC(=O)[C@H](Cc2ccc(OC)cc2)NC(=O)[C@H](Cc2ccc(O)cc2)NC(=O)[C@H](CC(N)=O)NC(=O)[C@H](Cc2c[nH]c3ccccc23)NC(=O)[C@H](C(C)C)NC(=O)[C@H](Cc2cccc(Cl)c2)N(C)C(=O)[C@H](C(C)C)NC(=O)[C@H](C)NC(=O)CSC[C@@H](C(=O)NCC(=O)NCC(=O)N[C@@H](CO)C(=O)NCC(=O)N[C@@H](CO)C(=O)NCC(=O)N[C@@H](CCCCN=[N+]=[N-])C(N)=O)NC(=O)[C@H](Cc2ccc(O)cc2)N(C)C(=O)[C@H](Cc2ccccc2)NC(=O)[C@@H](CCCCN)NC(=O)[C@H](CCCNC(=N)N)NC(=O)[C@H]([C@@H](C)CC)NC1=O` [compound 313], the Kd (surface plasmon resonance, peptide vs hTfR, read-out: KD value, hTfR binding by SPR (class symbol)) is 1 to 100 nM.

As to `CC[C@H](C)[C@@H]1NC(=O)[C@H](Cc2ccc(O)cc2)NC(=O)[C@H](Cc2ccc(O)cc2)NC(=O)[C@H](CC(N)=O)NC(=O)[C@H](Cc2c[nH]c3ccccc23)NC(=O)[C@H](C(C)C)NC(=O)[C@H](Cc2ccccc2)NC(=O)[C@H](C(C)C)NC(=O)[C@H](C)NC(=O)[C@H](CO)NC(=O)[C@H](C)NC(=O)CSC[C@@H](C(=O)NCCOCCOCCOCCOCCOCCOCCOCCOCCOCCOCCOCCOCCC(=O)N[C@@H](CCCCNC(=O)c2ccc(-c3c4ccc(=O)cc-4oc4cc(O)ccc34)c(C(=O)O)c2)C(N)=O)NC(=O)[C@H](C)NC(=O)[C@H](Cc2c[nH]c3ccccc23)NC(=O)[C@H](CCCNC(=N)N)NC(=O)[C@H](CC(N)=O)NC(=O)[C@H]([C@@H](C)CC)NC1=O` [compound 155] ({CH2CO}-ASAVFVWNYYIINRWAC[PEG12]K(X2)-NH2; thioether N-17), the Kd (SPR, linker and payload (FITC, VivoTag) conjugates, read-out: KD) was 1 to 100 nM.

Turning to `CC[C@H](C)[C@@H]1NC(=O)[C@H](Cc2ccc(OC)cc2)NC(=O)[C@H](Cc2ccc(O)cc2)NC(=O)[C@H](CC(N)=O)NC(=O)[C@H](Cc2c[nH]c3ccccc23)NC(=O)[C@H](C(C)C)NC(=O)[C@H](Cc2cccc(Cl)c2)N(C)C(=O)[C@H](C(C)C)NC(=O)[C@H](C)NC(=O)CSC[C@@H](C(=O)NCCOCCOCCOCCOCCC(N)=O)NC(=O)[C@H](Cc2ccc(O)cc2)N(C)C(=O)[C@H](Cc2ccccc2)NC(=O)[C@H](CCCNC(=N)N)NC(=O)[C@H](CCCNC(=N)N)NC(=O)[C@H]([C@@H](C)CC)NC1=O` [compound 502], the Kd (SPR, hTfR, class symbols A-D, read-out: KD (column without head, continuation of the table series)) was below 1 nM.

Turning to `CC[C@H](C)[C@@H]1NC(=O)[C@H](Cc2ccc(O)cc2)NC(=O)[C@H](Cc2ccc(O)cc2)NC(=O)[C@H](CC(N)=O)NC(=O)[C@H](Cc2c[nH]c3ccccc23)NC(=O)[C@H](C(C)C)NC(=O)[C@H](Cc2ccccc2)NC(=O)[C@H](C(C)C)NC(=O)[C@H](C)NC(=O)CSC[C@@H](C(N)=O)NC(=O)[C@H](Cc2ccc(O)cc2)N(C)C(=O)[C@H](Cc2ccc(O)cc2)NC(=O)[C@H](CCCNC(=N)N)NC(=O)[C@H](CCCNC(=N)N)NC(=O)[C@H](CCC(=O)O)NC1=O` [compound 247], the dissociation constant Kd under setting [1] lay within 1 to 100 nM.

The compound `CC[C@H](C)[C@@H]1NC(=O)[C@H](Cc2ccc(OC)cc2)NC(=O)[C@H](Cc2ccc(O)cc2)NC(=O)[C@H](CC(N)=O)NC(=O)[C@H](Cc2c[nH]c3ccccc23)N(C)C(=O)[C@H](C(C)C)NC(=O)[C@H](Cc2cccc(Cl)c2)N(C)C(=O)[C@H](C(C)C)NC(=O)[C@H](C)NC(=O)CSC[C@@H](C(=O)N(C)CC(=O)N(C)CC(=O)N(C)CC(N)=O)NC(=O)[C@H](Cc2ccc(O)cc2)N(C)C(=O)[C@H](Cc2ccccc2)NC(=O)[C@@H](CCCNC(=N)N)NC(=O)[C@H](CCCNC(=N)N)NC(=O)[C@H]([C@@H](C)CC)NC1=O` [compound 399] ({CH2CO}-AV[NMePhe(3-Cl)]V[NMeW]NYY(Me)IIR[dR]F[NMeY]C[Sar][Sar][Sar]-NH2; thioether N-15) displayed a Kd of 1 to 100 nM.

As to `CC[C@H](C)[C@@H]1NC(=O)[C@H](Cc2ccc(OC)cc2)NC(=O)[C@H](Cc2ccc(O)cc2)NC(=O)[C@H](CC(N)=O)NC(=O)[C@H](Cc2c[nH]c3ccccc23)N(C)C(=O)[C@H](C(C)C)NC(=O)[C@H](Cc2cccc(Cl)c2)N(C)C(=O)[C@H](C(C)C)NC(=O)[C@H](C)NC(=O)CSC[C@@H](C(=O)NCCOCCOCCOCCOCCC(N)=O)NC(=O)[C@H](Cc2ccc(O)cc2)N(C)C(=O)[C@H](Cc2ccccc2)NC(=O)[C@@H](CCCNC(=N)N)NC(=O)[C@H](CCCCCN)NC(=O)[C@H]([C@@H](C)CC)NC1=O` [compound 369] ({CH2CO}-AV[NMePhe(3-Cl)]V[NMeW]NYY(Me)II[hLys][dR]F[NMeY]C[PEG4]-NH2; thioether N-15), the Kd under setting [2] was in the range of 1 to 100 nM.

In the case of `CC[C@H](C)[C@@H]1NC(=O)[C@H](Cc2ccc(OC)cc2)NC(=O)[C@H](Cc2ccc(O)cc2)NC(=O)[C@H](CC(N)=O)NC(=O)[C@H](Cc2c[nH]c3ccccc23)N(C)C(=O)[C@H](C(C)C)NC(=O)[C@H](Cc2cccc(Cl)c2)N(C)C(=O)[C@H](C(C)C)NC(=O)[C@H](C)NC(=O)CSC[C@@H](C(=O)NCCOCCOCCOCCOCCC(N)=O)NC(=O)[C@H](Cc2ccc(O)cc2)N(C)C(=O)[C@H](Cc2ccccc2)NC(=O)[C@@H](CCCNC(=N)N)NC(=O)[C@H](CCN)NC(=O)[C@H]([C@@H](C)CC)NC1=O` [compound 366] ({CH2CO}-AV[NMePhe(3-Cl)]V[NMeW]NYY(Me)II[Dab][dR]F[NMeY]C[PEG4]-NH2; thioether N-15), the equilibrium dissociation constant (Kd) under setting [2] lay within 1 to 100 nM.

As for `CC[C@H](C)[C@@H]1NC(=O)[C@H](Cc2cccc(C(=O)O)c2)NC(=O)[C@H](Cc2ccc(O)cc2)NC(=O)[C@H](CC(N)=O)NC(=O)[C@H](Cc2c[nH]c3ccccc23)N(C)C(=O)[C@H](C(C)C)NC(=O)[C@H](Cc2cccc(Cl)c2)N(C)C(=O)[C@H](C(C)C)NC(=O)[C@H](C)NC(=O)CSC[C@@H](C(N)=O)NC(=O)[C@H](Cc2ccc(O)cc2)N(C)C(=O)[C@H](Cc2ccccc2)NC(=O)[C@@H](CCCNC(=N)N)NC(=O)[C@H](CCCNC(=N)N)NC(=O)[C@H]([C@@H](C)CC)NC1=O` [compound 458] ({CH2CO}-AV[NMePhe(3-Cl)]V[NMeW]NY[Phe(3-COOH)]IIR[dR]F[NMeY]C-NH2; thioether N-15), the Kd (SPR, hTfR, class symbols A-D, read-out: KD) lay within 1 to 100 nM.
